“And” between values parts separate entries of the source, which are not always exact repeats. Equal entries are not always repeated.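 Assay format: 96-well plates, 48-hour exposure. GI50: concentration for 50% inhibition of growth. TGI: total growth inhibition.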
How the values were obtained:
Test in all cases: NCI anticancer screen, dose series, 48 h
MCF7 breast = test system: MCF7 breast
CCRF-CEM leukemia = test system: CCRF-CEM leukemia
SF-295 CNS = test system: SF-295 CNS
HT29 colon = test system: HT29 colon
M14 melanoma = test system: M14 melanoma
MOLT-4 leukemia = test system: MOLT-4 leukemia
SK-OV-3 ovarian = test system: SK-OV-3 ovarian
SF-539 CNS = test system: SF-539 CNS
TK-10 renal = test system: TK-10 renal
OVCAR-3 ovarian = test system: OVCAR-3 ovarian

## COc1ccc2nc3cc(Cl)ccc3c(Nc3ccccc3-c3ccccc3Nc3c4ccc(Cl)cc4nc4ccc(OC)cc34)c2c1
MCF7 breast
  TGI: > 100 µM
CCRF-CEM leukemia
  TGI: > 49.2 µM
SF-295 CNS
  TGI: > 76.2 µM
HT29 colon
  TGI: 55.7 µM
M14 melanoma
  TGI: > 87.5 µM
MOLT-4 leukemia
  TGI: > 69.4 µM
SK-OV-3 ovarian
  TGI: > 100 µM
SF-539 CNS
  TGI: > 67.2 µM
TK-10 renal
  TGI: > 100 µM
OVCAR-3 ovarian
  TGI: > 78.4 µM

## CCN1C(=O)N(CC)C2C1NN=c1s/c(=C3\C(=O)Nc4ccccc43)c(=O)n12 (centres undefined)
MCF7 breast
  GI50: 0.354 µM
  TGI: > 89.7 µM
CCRF-CEM leukemia
  GI50: 0.385 µM
  TGI: 27.1 µM
SF-295 CNS
  GI50: 0.463 µM
  TGI: 12.4 µM
HT29 colon
  GI50: 0.374 µM
  TGI: > 100 µM
M14 melanoma
  GI50: 0.33 µM
  TGI: 3.36 µM
MOLT-4 leukemia
  GI50: 0.549 µM
  TGI: > 100 µM
SK-OV-3 ovarian
  GI50: 0.781 µM
  TGI: 29.6 µM
SF-539 CNS
  GI50: 0.309 µM
  TGI: 1.7 µM
TK-10 renal
  GI50: 9.37 µM
  TGI: 32.6 µM
OVCAR-3 ovarian
  GI50: 0.331 µM
  TGI: 3.02 µM

## CCC/C=C/C=C/C(=O)OC1/C(=C/C(=O)OC)CC2CC(C(C)O)OC(=O)CC(O)CC3CC(OC(C)=O)C(C)(C)C(O)(CC4C/C(=C/C(=O)OC)CC(/C=C/C(C)(C)C1(O)O2)O4)O3 (centres undefined)
MCF7 breast
  GI50: > 10.9 µM and 5.88 µM and > 12.5 µM
  TGI: > 10.9 µM and 11 µM and > 12.5 µM
CCRF-CEM leukemia
  GI50: 8.79 µM and 5.35 µM and > 12.5 µM
  TGI: 10.9 µM and 11 µM and > 12.5 µM
SF-295 CNS
  GI50: > 10.9 µM and 6.77 µM and > 12.5 µM
  TGI: > 10.9 µM and 11 µM and > 12.5 µM
HT29 colon
  GI50: > 10.9 µM and 5.12 µM and > 12.5 µM
  TGI: > 10.9 µM and 10.8 µM and > 12.5 µM
M14 melanoma
  TGI: > 11 µM
MOLT-4 leukemia
  GI50: 5.48 µM and 3.26 µM and > 12.5 µM
  TGI: 10.6 µM and 10.5 µM and > 12.5 µM
SK-OV-3 ovarian
  GI50: > 10.9 µM and 8.51 µM and > 12.5 µM
  TGI: > 10.9 µM and 11 µM and > 12.5 µM
SF-539 CNS
  GI50: > 11 µM
  TGI: > 12.5 µM
TK-10 renal
  GI50: > 11 µM
  TGI: > 12.5 µM
OVCAR-3 ovarian
  GI50: > 10.9 µM and 8.33 µM and > 12.5 µM
  TGI: > 10.9 µM and 11 µM and > 12.5 µM

## Cc1cc(NC(=O)NCCOc2ccc(N3C(N)=NC(N)=NC3(C)C)cc2Cl)ccc1S(=O)(=O)F
MCF7 breast
  GI50: 1.7 µM
  TGI: 50.3 µM
CCRF-CEM leukemia
  GI50: 0.805 µM
  TGI: > 67.6 µM
SF-295 CNS
  GI50: 5.16 µM
  TGI: > 85.1 µM
HT29 colon
  GI50: 0.484 µM
  TGI: 13.8 µM
M14 melanoma
  GI50: 4.1 µM
  TGI: > 100 µM
MOLT-4 leukemia
  GI50: 4.31 µM
  TGI: > 100 µM
SK-OV-3 ovarian
  GI50: 12 µM
  TGI: > 100 µM
SF-539 CNS
  GI50: 2.93 µM
  TGI: 18.1 µM
TK-10 renal
  GI50: 6.23 µM
  TGI: > 100 µM
OVCAR-3 ovarian
  GI50: 5.24 µM
  TGI: > 71 µM

## Cc1cccc(CNc2c3ccccc3nc3ccccc23)c1
MCF7 breast
  GI50: 1.9 µM
  TGI: 4.88 µM
CCRF-CEM leukemia
  GI50: 2.77 µM
  TGI: 15 µM
SF-295 CNS
  GI50: 2.13 µM
  TGI: 6.67 µM
HT29 colon
  GI50: 1.7 µM
  TGI: 10.1 µM
M14 melanoma
  GI50: 1.57 µM
  TGI: 3.35 µM
MOLT-4 leukemia
  GI50: 3.06 µM
  TGI: 11.3 µM
SK-OV-3 ovarian
  GI50: 2.61 µM
  TGI: 10.5 µM
SF-539 CNS
  GI50: 1.67 µM
  TGI: 3.14 µM
TK-10 renal
  GI50: 2.83 µM
  TGI: 12.2 µM
OVCAR-3 ovarian
  GI50: 2.29 µM
  TGI: 5.92 µM

## O=C1c2ccccc2C(=O)c2c1ccc1conc21
MCF7 breast
  TGI: 2.65 µM
CCRF-CEM leukemia
  TGI: 71.1 µM
SF-295 CNS
  TGI: 4.97 µM
HT29 colon
  TGI: 13 µM
M14 melanoma
  TGI: 5.7 µM
MOLT-4 leukemia
  TGI: 6.25 µM
SK-OV-3 ovarian
  TGI: 13.3 µM
SF-539 CNS
  TGI: 3.87 µM
TK-10 renal
  TGI: 15.3 µM
OVCAR-3 ovarian
  TGI: 0.974 µM

## O=C1OC(c2ccc([N+](=O)[O-])cc2)=N/C1=C\c1ccc(Cl)cc1
MCF7 breast
  TGI: > 100 µM
CCRF-CEM leukemia
  TGI: > 100 µM
SF-295 CNS
  TGI: > 100 µM
HT29 colon
  TGI: > 100 µM
M14 melanoma
  TGI: > 100 µM
MOLT-4 leukemia
  TGI: > 100 µM
SK-OV-3 ovarian
  TGI: > 100 µM
SF-539 CNS
  TGI: > 100 µM
TK-10 renal
  TGI: > 100 µM
OVCAR-3 ovarian
  TGI: > 100 µM

From PubChem BioAssay (NCI)
